Counter-ions that a name gives are not always drawn.

This passage reports Ki results from US20190047966A1, “NOVEL COMPOUND AND PHARMACOLOGICALLY ACCEPTABLE SALT THEREOF” (MEIJI SEIKA PHARMA CO., LTD., priority 2016, published 2019).

The target of experiment [1] is T1, human histamine H4 receptor (Homo sapiens, UniProt Q9H3N8).
T1 construct: purchased PerkinElmer Inc; host or cells: CHO-K1
Kind of experiment: Evaluation of Human H4 Receptor Affinity ([3H]histamine binding). Conditions: inhibition constant Ki, CHO-K1 membrane preparation, read-out: Evaluation of H4 Receptor Affinity. An outline of the steps: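 Radioligand displacement: compound competes with 8.2 nM [3H]histamine at recombinant human H4 receptor in CHO-K1 membranes (Tris-HCl 50 mM pH 7.4, EDTA 1.25 mM; 25 °C, 90 min), with filter-bound radioactivity counted. IC50 was converted to Ki via Cheng-Prusoff (Kd 5.7 nM); 1.0 μM histamine set nonspecific binding.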

Experiment [2] concerns the target human histamine H1 receptor (Homo sapiens, UniProt P35367). The experiment is described as follows: Evaluation of Human H1 Receptor Affinity ([3H]pyrilamine binding). The settings on record: inhibition constant Ki, CHO-K1 membrane preparation. Set-up: purchased PerkinElmer Inc; host or cells: CHO-K1. An outline of the steps:
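Ki values are Cheng-Prusoff conversions of IC50 (Kd 1.1 nM) from radioligand displacement of 1.2 nM [3H]pyrilamine, with 1.0 μM pyrilamine defining nonspecific binding.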

T1 sequence (Q9H3N8 whole entry): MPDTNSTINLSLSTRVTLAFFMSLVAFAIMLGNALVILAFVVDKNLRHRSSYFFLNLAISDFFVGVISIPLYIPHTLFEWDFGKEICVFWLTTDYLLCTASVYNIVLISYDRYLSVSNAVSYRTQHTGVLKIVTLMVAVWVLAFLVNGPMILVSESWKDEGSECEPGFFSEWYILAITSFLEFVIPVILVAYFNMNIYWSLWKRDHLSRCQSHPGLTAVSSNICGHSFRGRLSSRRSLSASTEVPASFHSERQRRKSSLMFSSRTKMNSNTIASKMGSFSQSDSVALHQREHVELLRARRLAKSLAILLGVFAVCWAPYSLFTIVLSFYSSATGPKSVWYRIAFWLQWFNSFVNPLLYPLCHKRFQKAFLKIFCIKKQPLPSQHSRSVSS
Sequence of human histamine H1 receptor (P35367 whole entry): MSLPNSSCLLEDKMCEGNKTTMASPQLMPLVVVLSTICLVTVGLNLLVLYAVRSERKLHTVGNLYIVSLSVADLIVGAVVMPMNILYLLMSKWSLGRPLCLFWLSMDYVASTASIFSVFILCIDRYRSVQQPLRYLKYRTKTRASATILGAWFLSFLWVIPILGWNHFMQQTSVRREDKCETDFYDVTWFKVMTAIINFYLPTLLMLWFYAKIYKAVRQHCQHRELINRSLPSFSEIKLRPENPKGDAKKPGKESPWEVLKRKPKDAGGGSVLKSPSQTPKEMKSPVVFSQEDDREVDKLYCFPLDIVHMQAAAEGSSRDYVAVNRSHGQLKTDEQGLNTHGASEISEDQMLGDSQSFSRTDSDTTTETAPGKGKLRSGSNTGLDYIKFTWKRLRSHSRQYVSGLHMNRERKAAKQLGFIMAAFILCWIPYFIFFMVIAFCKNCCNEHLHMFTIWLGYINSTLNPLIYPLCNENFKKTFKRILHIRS

In the case of `CS(=O)(=O)NC(=O)COCCOCCN1CCN(c2nc(N)nc3c2CCc2cc(OCc4ccc(Cl)cc4)ccc2-3)CC1` [Example 187, 2-(2-(2-(4-(2-amino-8-((4-chlorobenzyl)oxy)-5,6-dihydrobenzo[h]quinazolin-4-yl)piperazin-1-yl)ethoxy)ethoxy)-N-(methylsulfonyl)acetamide], the Ki is 0.1 to 0.5 µM in experiment [1] and less than 0.1 µM in experiment [2].

For the compound `CNC(=O)COCCOCCN1CCN(c2nc(N)nc3c2CCc2cc(OCc4ccc(Cl)cc4)ccc2-3)CC1` [Example 188, 2-(2-(2-(4-(2-amino-8-((4-chlorobenzyl)oxy)-5,6-dihydrobenzo[h]quinazolin-4-yl)piperazin-1-yl)ethoxy)ethoxy)-N-methylacetamide dihydrochloride], the Ki in experiment [1] and in experiment [2] was less than 0.1 µM each time.

In the case of `Nc1nc2c(c(N3CCN(CCO[C@H]4C[C@@H](C(=O)NO)C4)CC3)n1)CCc1cc(OCc3ccc(OC(F)(F)F)cc3)ccc1-2` [Example 189, cis 3-(2-(4-(2-amino-8-((4-(trifluoromethoxy)benzyl)oxy)-5,6-dihydrobenzo[h]quinazolin-4-yl)piperazin-1-yl)ethoxy)-N-hydroxycyclobutane-l-carboxamide], the Ki in experiment [1] and in experiment [2] was less than 0.1 µM throughout.

Regarding `Nc1nc2c(c(N3CCN(CCOCC4CN(C5=NS(=O)(=O)N=C5O)C4)CC3)n1)CCc1cc(OCc3ccc(OC(F)(F)F)cc3)ccc1-2` [Example 190(b), 3-(3-((2-(4-(2-amino-8-((4-(trifluoromethoxy)benzyl)oxy)-5,6-dihydrobenzo[h]quinazolin-4-yl)piperazin-1-yl)ethoxy)methyl)azetidin-1-yl)-4-hydroxy-1,2,5-thiadiazole 1,1-dioxide], the Ki in experiment [1] and in experiment [2] was less than 0.1 µM throughout.

For `CN1CCN(c2nc(N)nc3c2CCc2cc(NS(=O)(=O)c4ccc(OCC(F)(F)F)cc4)ccc2-3)CC1` [Example 191, N-(2-amino-4-(4-methylpiperazin-1-yl)-5,6-dihydrobenzo[h]quinazolin-8-yl)-4-(2,2,2-trifluoroethoxy)benzenesulfonamide], the Ki in experiment [1] and in experiment [2] was less than 0.1 µM throughout.

On to `Nc1nc2c(c(N3CCNCC3)n1)CCc1cc(NS(=O)(=O)c3ccc(OC(F)(F)F)cc3)ccc1-2` [Example 192, N-(2-amino-4-(4-piperazin-1-yl)-5,6-dihydrobenzo[h]quinazolin-8-yl)-4-(trifluoromethoxy)benezenesulfonamide hydrochloride], for which the Ki in experiment [1] and in experiment [2] was less than 0.1 µM throughout.

On to `CN1CCCN(c2nc(N)nc3c2CCc2cc(NS(=O)(=O)c4ccc(OC(F)(F)F)cc4)ccc2-3)CC1` [Example 193, N-(2-amino-4-(4-methyl-1,4-diazepan-1-yl)-5,6-dihydrobenzo[h]quinazolin-8-yl)-4-(trifluoromethoxy)benzenesulfonamide bis(trifluoroacetate)], for which the Ki in experiment [1] and in experiment [2] was less than 0.1 µM throughout.

For the compound `CN1CCN(c2nc(N)nc3c2CCc2cc(NS(=O)(=O)N4CCC(F)(F)CC4)ccc2-3)CC1` [Example 194, N-(2-amino-4-(4-methylpiperazin-1-yl)-5,6-dihydrobenzo[h]quinazolin-8-yl)-4,4-difluoropiperidine-1-sulfonamide], the Ki in experiment [1] and in experiment [2] was 0.1 to 0.5 µM in each case.

Consider `CN1CCN(c2nc(N)nc3c2CCc2cc(NC(=O)Nc4ccc(Cl)cc4)ccc2-3)CC1` [Example 195, 1-(2-amino-4-(4-methylpiperazin-1-yl)-5,6-dihydrobenzo[h]quinazolin-8-yl)-3-(4-chlorophenyl)urea], for which the figures for the Ki in experiment [1] and in experiment [2] were less than 0.1 µM and 0.1 to 0.5 µM, respectively.

With `CN1CCN(c2nc(N)nc3c2CCc2cc(OCc4ccc(Br)cc4)ccc2-3)CC1` [Example 197, 8-((4-bromobenzyl)oxy)-4-(4-methylpiperazin-1-yl)-5,6-dihydrobenzo[h]quinazolin-2-amine], the Ki in experiment [1] and in experiment [2] was less than 0.1 µM each time.

Consider `CN1CCN(c2nc(N)nc3c2CCc2cc(OCc4ccc(OC(F)(F)F)cc4)ccc2-3)CC1` [Example 198, 4-(4-methylpiperazin-1-yl)-8-((4-(trifluoromethoxy)benzyl)oxy)-5,6-dihydrobenzo[h]quinazolin-2-amine], for which the Ki in experiment [1] and in experiment [2] was less than 0.1 µM throughout.

In the case of `CN1CCN(c2nc(N)nc3c2CCc2cc(OCC4CCOCC4)ccc2-3)CC1` [Example 199, 4-(4-methylpiperazin-1-yl)-8-((tetrahydro-2H-pyran-4-yl)methoxy)-5,6-dihydrobenzo[h]quinazolin-2-amine], the Ki in experiment [1] and in experiment [2] was 0.1 to 0.5 µM in each case.

Consider `CN1CCN(c2nc(N)nc3c2CCc2ccc(OCc4ccccc4)cc2-3)CC1` [Example 200, 9-(benzyloxy)-4-(4-methylpiperazin-1-yl)-5,6-dihydrobenzo[h]quinazolin-2-amine], for which the Ki in experiment [1] and in experiment [2] was less than 0.1 µM in each case.

In the case of `CN1CCN(c2nc(N)nc3c2CCCc2ccc(OCc4ccccc4)cc2-3)CC1` [Example 202, 10-(benzyloxy)-4-(4-methylpiperazin-1-yl)-6,7-dihydro-5H-benzo[6,7]cyclohepta[1,2-d]pyrimidin-2-amine], the Ki is less than 0.1 µM in experiment [1] and 0.1 to 0.5 µM in experiment [2].

With `CN1CCN(c2nc(N)nc3c2oc2ccc(OCc4ccccc4)cc23)CC1` [Example 203, 8-(benzyloxy)-4-(4-methylpiperazin-1-yl)benzofuro[3,2-d]pyrimidin-2-amine], the Ki in experiment [1] and in experiment [2] was less than 0.1 µM each time.

As to `CN1CCN(c2nc(N)nc3c2CCOc2cc(OCc4ccccc4)ccc2-3)CC1` [Example 204, 9-(benzyloxy)-4-(4-methylpiperazin-1-yl)-5,6-dihydrobenzo[2,3]oxepino[4,5-d]pyrimidin-2-amine], the Ki in experiment [1] and in experiment [2] was less than 0.1 µM in each case.

With `Nc1nc2c(c(N3CCN(CCO[C@H]4C[C@@H](C(=O)O)C4)CC3)n1)CCc1cc(OCc3ccc(OC(F)(F)F)cc3F)ccc1-2` [Example 205, cis-3-(2-(4-(2-amino-8-((2-fluoro-4-(trifluoromethoxy)benzyl)oxy)-5,6-dihydrobenzo[h]quinazolin-4-yl)piperazin-1-yl)ethoxy)cyclobutane-1-carboxylic acid], the Ki in experiment [1] and in experiment [2] was less than 0.1 µM in each case.

On to `Nc1nc2c(c(N3CCN(CCO[C@H]4C[C@@H](C(=O)O)C4)CC3)n1)CCc1cc(OCc3ccc(OC(F)(F)F)c(F)c3)ccc1-2` [Example 206, cis-3-(2-(4-(2-amino-8-((3-fluoro-4-(trifluoromethoxy)benzyl)oxy)-5,6-dihydrobenzo[h]quinazolin-4-yl)piperazin-1-yl)ethoxy)cyclobutane-1-carboxylic acid], for which the Ki in experiment [1] and in experiment [2] was less than 0.1 µM in each case.

Turning to `COc1cc(OC(F)(F)F)ccc1COc1ccc2c(c1)CCc1c-2nc(N)nc1N1CCN(CCO[C@H]2C[C@@H](C(=O)O)C2)CC1` [Example 207, cis-3-(2-(4-(2-amino-8-((2-methoxy-4-(trifluoromethoxy)benzyl)oxy)-5,6-dihydrobenzo[h]quinazolin-4-yl)piperazin-1-yl)ethoxy)cyclobutane-1-carboxylic acid], the Ki in experiment [1] and in experiment [2] was less than 0.1 µM throughout.

For `Cc1cc(OC(F)(F)F)ccc1COc1ccc2c(c1)CCc1c-2nc(N)nc1N1CCN(CCO[C@H]2C[C@@H](C(=O)O)C2)CC1` [Example 208, cis-3-(2-(4-(2-amino-8-((2-methyl-4-(trifluoromethoxy)benzyl)oxy)-5,6-dihydrobenzo[h]quinazolin-4-yl)piperazin-1-yl)ethoxy)cyclobutane-1-carboxylic acid], the Ki in experiment [1] and in experiment [2] was less than 0.1 µM in each case.

`Nc1nc2c(c(N3CCN(CCO[C@H]4C[C@@H](C(=O)O)C4)CC3)n1)CCc1cc(OCc3ccc(OC(F)F)cc3)ccc1-2` [Example 210, cis-3-(2-(4-(2-amino-8-((4-(difluoromethoxy)benzyl)oxy)-5,6-dihydrobenzo[h]quinazolin-4-yl)piperazin-1-yl)ethoxy)cyclobutane-1-carboxylic acid]: the Ki in experiment [1] and in experiment [2] was less than 0.1 µM throughout.

In the case of `Nc1nc2c(c(N3CCN(CCO[C@H]4C[C@@H](C(=O)O)C4)CC3)n1)CCc1cc(OCc3ccc(SC(F)(F)F)cc3)ccc1-2` [Example 211], the Ki in experiment [1] and in experiment [2] was less than 0.1 µM throughout.

For the compound `Nc1nc2c(c(N3CCN(CCO[C@H]4C[C@@H](C(=O)O)C4)CC3)n1)CCc1cc(OCc3ccc(S(=O)(=O)C(F)(F)F)cc3)ccc1-2` [Example 212, cis-3-(2-(4-(2-amino-8-((4-((trifluoromethyl)sulfonyl)benzyl)oxy)-5,6-dihydrobenzo[h]quinazolin-4-yl)piperazin-1-yl)ethoxy)cyclobutane-l-carboxylic acid], the Ki in experiment [1] and in experiment [2] was less than 0.1 µM throughout.

“cis-3-(2-(4-(2-amino-8-((4-((trifluoromethyl)cyclohexyl)methoxy)-5,6-dihydrobenzo[h]quinazolin-4-yl)piperazin-1-yl)ethoxy)cyclobutane-l-carboxylic acid [Example 215]”: the Ki in experiment [1] is 0.1 to 0.5 µM; in experiment [2], less than 0.1 µM.

For “cis-3-(2-(4-(2-amino-8-((4-cyclopropylbenzyl)oxy)-5,6-dihydrobenzo[h]quinazolin-4-yl)piperazin-1-yl)ethoxy)cyclobutane-l-carboxylic acid [Example 214]”, the Ki in experiment [1] and in experiment [2] was less than 0.1 µM in each case.

In the case of “trans-4-((2-(4-(2-amino-8-((4-cyanobenzyl)oxy)-5,6-dihydrobenzo[h]quinazolin-4-yl)piperazin-1-yl)ethoxy)cyclohexane-l-carboxylic acid [Example 213]”, the Ki in experiment [1] was 0.1 to 0.5 µM; in experiment [2], less than 0.1 µM.
